The values that follow come from article PMC2693028 (ChemMedChem, 2008).

For series [1], the system named is Escherchia coli (ATCC strain 25922). Kind of series: microbe, parasite or virus in culture. It counts as cell-based. The settings on record: for MIC / MBC: Escherichia coli, ATCC25922.
In series [2] the test system is ΔANR B. anthracis. Briefly: microbe, parasite or virus in culture. Format: cell-based, Bacillus anthracis.
In series [3] the test system is vancomycin–resistant Enterococcus (VRE) (ATCC strain 51299). Kind of series: microbe, parasite or virus in culture. It counts as cell-based. Particulars: for MIC / MBC: Enterococcus, ATCC51299|VRE.
Series [4] relates to Staphylococcus aureus (ATCC strain 29213). Briefly: microbe, parasite or virus in culture. Format: cell-based. Particulars: ATCC29213|MSSA.
For series [5], the system named is Klebsiella pneumoniae (ATCC strain 700603). Briefly: microbe, parasite or virus in culture. It counts as cell-based. Particulars: for MIC / MBC: Klebsiella pneumoniae, ATCC700603.
Series [6] deals with methicillin–resistant Staphylococcus aureus (ATCC strain 43300). Kind of series: microbe, parasite or virus in culture. Format: cell-based.
Series [7] relates to Pseudomonas aeruginosa (ATCC strain 27853). Kind of series: microbe, parasite or virus in culture. Format: cell-based. The settings on record: ATCC27853.
Series [8] concerns Listeria monocytogenes (10403S). Briefly: microbe, parasite or virus in culture. Format: cell-based. Particulars: for MIC / MBC: Listeria monocytogenes.
Series [9] has as its system Sterne strain B. anthracis. Kind of series: microbe, parasite or virus in culture. Particulars: for MIC / MBC: Bacillus anthracis. Format: cell-based, Bacillus anthracis.
The subject of series [10] is Enterococcus fecalis (ATCC strain 29212). Kind of series: microbe, parasite or virus in culture. Format: cell-based. Particulars: for MIC / MBC: Enterococcus, ATCC29212.
The target in series [11] is Enoyl reducase (ENR) from Bacillus anthracis (BaENR) (Bacillus anthracis, UniProt A0A6L8PBX8). Kind of series: biochemical. Particulars: IC50.
The subject of the next series is MHS. Kind of series: cells. The settings on record: read-out: EC50 against MHS. It counts as cell-based.
Series [12] relates to HeLa cells. Kind of series: cells. Particulars: Homo sapiens, read-out: EC50 against HeLa cells.
In series [13] the test system is HeLa cells. The settings on record: human.
Series [14] deals with ΔANR B. anthracis. The settings on record: cited from earlier work.
A further series concerns ENR in E. coli. Particulars: cited from earlier work.
Another series concerns ENR in S. aurues. The settings on record: cited from earlier work.
A further series concerns PfENR. The settings on record: cited from earlier work.
[15] abbreviates: Staphylococcus aureus, ATCC43300|MRSA.

In brackets after ≈: the same amount, converted by molar mass. Several values for one entry are separate records, joined by “and”; a condition that tells them apart may be missing. Identical values can stand only once. Like-named read-outs stand apart in the source and are kept apart here.

Sequence of Enoyl reducase (ENR) from Bacillus anthracis (BaENR) (A0A6L8PBX8 1-256): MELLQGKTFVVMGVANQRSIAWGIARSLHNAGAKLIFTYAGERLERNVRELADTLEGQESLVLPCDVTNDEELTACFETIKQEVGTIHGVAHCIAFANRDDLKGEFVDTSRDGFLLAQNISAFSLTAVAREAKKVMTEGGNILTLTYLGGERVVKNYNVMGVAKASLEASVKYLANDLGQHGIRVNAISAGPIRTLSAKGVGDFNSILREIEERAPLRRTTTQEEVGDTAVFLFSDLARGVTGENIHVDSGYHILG

Turning to `O=C(O)c1cn(C2CC2)c2cc(N3CCNCC3)c(F)cc2c1=O` [Cipro, reference compound], the MIC in series [1] amounted to 0.1 µg/mL (≈ 0.302 µM); in the series on ΔANR B. anthracis [2] (Bacillus anthracis) it was 0.1 µg/mL (≈ 0.302 µM); in series [3] it was 0.6 ± 0.2 µg/mL (≈ 1.81 µM); in series [4] it was 0.4 µg/mL (≈ 1.21 µM); in series [5], 0.5 ± 0.1 µg/mL (≈ 1.51 µM); in series [6] (setting [15]) it was 0.5 ± 0.2 µg/mL (≈ 1.51 µM). For the same molecule, the MIC in [7] was 0.3 ± 0.1 µg/mL (≈ 0.905 µM); in series [8] it was 0.9 ± 0.3 µg/mL (≈ 2.72 µM); in series [9], 0.1 µg/mL (≈ 0.302 µM); in series [10] it was 0.7 ± 0.1 µg/mL (≈ 2.11 µM).
The IC50 is the midpoint of a concentration-inhibition curve. Usually EC50 stands for the midpoint of the concentration-response curve. As to `O=[N+]([O-])c1ccc(Oc2ccc(Cl)cc2O)c(Cl)c1` [Compound 6, 5-Chloro-2-(2-chloro-4-nitrophenoxy)phenol], the MBC in series [1] came to 12.5 µg/mL (≈ 41.7 µM); in the series with ΔANR B. anthracis [2] (Bacillus anthracis) it was 3.1 ± 1.1 µg/mL (≈ 10.3 µM); in series [3], 37.5 ± 12.5 µg/mL (≈ 125 µM); in [4], 2.9 ± 1.2 µg/mL (≈ 9.66 µM); in series [5] it was 12.5 µg/mL (≈ 41.7 µM); in series [6] (setting [15]) it was 0.4 ± 0.1 µg/mL (≈ 1.33 µM). The MBC in [8] came to 14.1 ± 3.9 µg/mL (≈ 47 µM); in series [9], 3.9 ± 0.8 µg/mL (≈ 13 µM); in series [10] it was 31.3 ± 6.3 µg/mL (≈ 104 µM). The MIC in [1] came out at 0.3 ± 0.1 µg/mL (≈ 1 µM); in series [3], 5.7 ± 0.6 µg/mL (≈ 19 µM); in series [4], 0.1 ± 0.1 µg/mL (≈ 0.333 µM); in series [5], 1.8 ± 0.4 µg/mL (≈ 6 µM); in series [6] it was 0.3 ± 0.3 µg/mL (≈ 1 µM); in series [6] (setting [15]), 0.3 µg/mL (≈ 1 µM). For the same molecule, the MIC in [7] is > 25 µg/mL; in [8] it was 2.8 ± 0.3 µg/mL (≈ 9.33 µM); in series [9] it was 1.9 ± 0.3 µg/mL (≈ 6.33 µM); in [10], 4.4 ± 0.8 µg/mL (≈ 14.7 µM). Besides, the IC50 in series [11] was 290 nM and 300 nM. Besides, the values for the EC50 with MHS and in the series on HeLa cells [12] were 9.9 µg/mL (≈ 33 µM) and 29.3 µg/mL (≈ 97.6 µM), respectively.
As for `CCCc1ccc(Oc2ccc([N+](=O)[O-])cc2Cl)c(O)c1` [Compound 11, 2-(2-Chloro-4-nitrophenoxy)-5-propylphenol], the MBC/MIC in [1] was 4.5; against ΔANR B. anthracis [2] it was 1.8; in series [3], 2.7; in [5], 4.7; in series [6], 1.9; in series [8], 5.0. For the same molecule, the MBC/MIC in [9] is listed as 2.1; in series [10], 2.9. Moreover, the MBC in series [1] is 1.2 ± 0.4 µg/mL (≈ 3.9 µM); with ΔANR B. anthracis [2] (Bacillus anthracis), 3.9 ± 0.8 µg/mL (≈ 12.7 µM); in series [3] it was 15.6 ± 3.1 µg/mL (≈ 50.7 µM); in series [4], 2.9 ± 1.2 µg/mL (≈ 9.42 µM); in series [5] it was 8.3 ± 2.1 µg/mL (≈ 27 µM); in [6] (setting [15]), 0.5 ± 0.2 µg/mL (≈ 1.62 µM). For the same molecule, the results for the MBC in [8], in series [9] and in series [10] were 14.1 ± 3.9 µg/mL (≈ 45.8 µM), 3.9 ± 0.8 µg/mL (≈ 12.7 µM) and 12.5 µg/mL (≈ 40.6 µM), respectively. Further, the MIC in series [1] was 0.3 ± 0.2 µg/mL (≈ 0.975 µM); against ΔANR B. anthracis [2], 2.2 ± 0.0 µg/mL (≈ 7.15 µM); in the series with ΔANR B. anthracis [2] (Bacillus anthracis), 1.9 to 3.1 µg/mL (≈ 6.17 to 10.1 µM); in series [3] it was 5.7 ± 0.3 µg/mL (≈ 18.5 µM); in [4], 0.1 ± 0.1 µg/mL (≈ 0.325 µM); in series [5], 1.8 ± 0.9 µg/mL (≈ 5.85 µM). Besides, the MIC in series [6] is 0.3 ± 0.3 µg/mL (≈ 0.975 µM); in series [6] (setting [15]) it was 0.3 µg/mL (≈ 0.975 µM); in series [7], > 25 µg/mL; in series [8] it was 2.8 ± 0.9 µg/mL (≈ 9.1 µM); in [9] it was 1.9 µg/mL (≈ 6.17 µM); in series [10], 4.4 ± 0.5 µg/mL (≈ 14.3 µM). The molecule also returned an IC50 in series [11] of 500 nM. Further, the values for the EC50 in the series with MHS and in the series on HeLa cells [12] were 22.6 µg/mL (≈ 73.4 µM) and 41.4 µg/mL (≈ 135 µM), respectively. The EC50/MIC ratio in the series with HeLa cells [13] is recorded as 15–20.
On to `Oc1cc(Cl)ccc1Oc1ccc(Cl)cc1Cl` [Triclosan], for which the MIC in the series with ΔANR B. anthracis [2] (Bacillus anthracis) and with ΔANR B. anthracis [14] was 3.1 µg/mL (≈ 10.7 µM) each time. In addition, the figures for the IC50 with ENR in E. coli, with ENR in S. aurues and with PfENR were 7250 nM, 70 nM and 73 nM, respectively.
